Results: US20230165252A1, “ACTIVE COMPOUND COMBINATIONS” (Bayer Aktiengesellschaft, priority 2020, published 2023)

Assay: Measurement of Log P values by HPLC on reversed phase columns (EEC directive 79/831 Annex V.A8), methods [a], [b], [c]
Format: physicochemical
Details: HPLC method [a]
Description: Measurement of Log P values as provided herein was performed according to EEC directive 79/831 Annex V.A8 by HPLC (High Performance Liquid Chromatography) on reversed phase columns with the following methods: • ^[a]

| SMILES | LogP |
| --- | --- |
| C=C(C)c1cc(C(=O)NCC(F)(F)c2ccc(C)cc2C)c(Oc2cccc(C(F)(F)F)c2)nn1 [I-222] | 4.87^[a] |
| COc1ccc(CCNC(=O)c2cc(Cl)nnc2Oc2cccc(C(F)(F)F)c2)cc1OC [I-268] | 3.26^[a] |
| O=C(NCC(F)(F)c1ccc(Cl)cc1)c1c(Oc2cccc(C(F)(F)F)c2)nnc(Cl)c1NC1CCCCC1 [I-272] | 4.98^[a] |
| O=C(NCc1cnc2ccccc2c1)c1cc(Cl)nnc1Oc1cccc(C(F)(F)F)c1 [I-306] | 2.71^[a] |

Same assay, conditions: HPLC method [b]

| SMILES | LogP |
| --- | --- |
| Cc1cc(C(=O)NCCc2ccc(C(F)F)cn2)c(Oc2cccc(C3CC3)c2)nn1 [I-282] | 2.82^[b] |

Same assay, conditions: HPLC on reversed phase column, method [a]

| SMILES | LogP |
| --- | --- |
| COc1ccc(C(F)(F)CNC(=O)c2cc(Cl)nnc2Oc2cccc(C(F)(F)F)c2)c(Cl)c1 [I-007] | 4.00^[a] |
| Cc1cc(C(=O)NCC(F)(F)c2ccc(C3CCCCC3)cc2Cl)c(Oc2cccc(C(F)(F)F)c2)nn1 [I-018] | 5.44^[a] |
| Cc1cc(C(=O)NCC(F)(F)c2ccc(C3CCC3)cc2Cl)c(Oc2cccc(C(F)(F)F)c2)nn1 [I-028] | 4.83^[a] |
| COc1ccc(CCNC(=O)c2cc(Cl)nnc2Oc2cccc(C(F)(F)F)c2)cc1 [I-036] | 3.61^[a] |
| O=C(NCCc1ncccc1C(F)(F)F)c1cc(Cl)nnc1Oc1cccc(C(F)(F)F)c1 [I-037] | 3.65^[a] |
| Cc1ccc(C(F)(F)CNC(=O)c2c(Oc3cccc(C(F)(F)F)c3)nnc(Cl)c2NCC(C)(C)O[Si](C)(C)C)c(C)c1 [I-064] | 6.32^[a] |
| O=C(NCC(F)(F)c1ccc(F)cc1F)c1cc(Cl)nnc1Oc1cccc(C(F)(F)F)c1 [I-067] | 3.75^[a] |
| O=C(NCCc1ccc(C(F)(F)F)cn1)c1cc(Cl)nnc1Oc1cccc(C(F)(F)F)c1 [I-068] | 3.53^[a] |
| Cc1ccc(C(F)(F)CNC(=O)c2c(Oc3cccc(C(F)(F)F)c3)nnc(Cl)c2[S+](C)[O-])c(C)c1 (stereo not drawn) [I-072] | 3.75^[a] |
| CC(CNC(=O)c1cc(Cl)nnc1Oc1cccc(C(F)(F)F)c1)c1ccc(Cl)cc1Cl (stereo not drawn) [I-075] | 4.68^[a] |
| CC(=O)N(C)Cc1c(Cl)nnc(Oc2cccc(C(F)(F)F)c2)c1C(=O)NCCc1ccc(C)cc1C [I-077] | 3.65^[a] |
| O=C(NCC(F)(F)c1ccc(SCC(F)(F)F)cc1Cl)c1cc(Cl)nnc1Oc1cccc(C(F)(F)F)c1 [I-087] | 4.45^[a] |
| O=C(NCC(F)(F)c1ccc(Cl)cn1)c1cc(Cl)nnc1Oc1cccc(C(F)(F)F)c1 [I-108] | 3.65^[a] |
| O=C(NCC(F)(F)c1ccc(Cl)cn1)c1cc(Cl)nnc1Oc1cccc(C(F)F)c1 [I-158] | 3.32^[a] |
| Cc1ccc(C(F)(F)CNC(=O)c2cc(Cl)nnc2Oc2cncc(Br)c2)c(C)c1 [I-173] | 3.78^[a] |
| CCOc1c(Cl)nnc(Oc2cccc(C(F)(F)F)c2)c1C(=O)NCC(F)(F)c1ccc(C)cc1C [I-181] | 4.68^[a] |
| Cc1cnnc(Oc2cccc(C(F)(F)F)c2)c1C(=O)NCC(F)(F)c1ccc(Cl)cc1Cl [I-183] | 3.78^[a] |
| Cc1c(Cl)nnc(Oc2cccc(C3CC3)c2F)c1C(=O)NCCc1ccc(Cl)cc1Cl [I-215] | 4.58^[a] |

Same assay, conditions: method [a]: LC-UV, acidic range, 0.1% formic acid in water and acetonitrile as eluent (10% to 95% acetonitrile); Table 3, compounds of formula (1)

| SMILES | LogP |
| --- | --- |
| CNc1c(Cl)nnc(Oc2cccc(C3CC3)c2F)c1C(=O)O [Compound 1-116] | 1.97^[a] |
| Cc1c(Cl)nnc(Oc2cccc(C(F)F)c2F)c1C(=O)O [Compound 1-117] | 1.49^[a] |
| Cc1c(Cl)nnc(Oc2cccc(Cl)c2F)c1C(=O)O [Compound 1-122] | 1.68^[a] |
| Cc1cc(C(=O)O)c(Oc2cccc(C(F)(F)F)c2)nn1 [Compound 1-125] | 1.92^[a] |
| O=C(O)c1cc(I)nnc1Oc1cccc(C(F)(F)F)c1 [Compound 1-127] | 2.08^[a] |

Same assay, conditions: method [a]: LC-UV, acidic range, 0.1% formic acid in water and acetonitrile as eluent; Table 5, compounds of formula (2)

| SMILES | LogP |
| --- | --- |
| C#Cc1ccc(C(F)(F)CN)c(C)c1 [Compound 2-01] | 0.93^[a] |
| Cc1cc(C)c(C(F)(F)CN)c(F)c1 [Compound 2-03] | 0.95^[a] |
| NCC(F)(F)c1cccc(Br)c1Cl [Compound 2-04] | 0.87^[a] |

Same assay, conditions: method [a]: LC-UV, acidic range, 0.1% formic acid in water and acetonitrile as eluent; Table 9, compounds of formula (4)

| SMILES | LogP |
| --- | --- |
| CC=Cc1cccc(O)c1F [Compound 4-01] | 2.33^[a] |

Same assay, conditions: reversed-phase HPLC column, HPLC method [a]

| SMILES | chromatographic logP |
| --- | --- |
| Cc1cc(C2CC2)ccc1C(F)(F)CNC(=O)c1cc(Cl)nnc1Oc1cccc(C(F)(F)F)c1 [Compound I-240, 6-chloro-N-[2-(4-cyclopropyl-2-methyl-phenyl)-2,2-difluoro-ethyl]-3-[3-(tri-fluoromethyl)phenoxy]pyridazine-4-carboxamide] | 4.77 |
| CCc1c(Cl)nnc(Oc2cccc(C(F)(F)F)c2)c1C(=O)NCC(F)(F)c1ccc(Cl)cc1 [Compound I-254, 6-chloro-N-[2-(4-chlorophenyl)-2,2-difluoro-ethyl]-5-ethyl-3-[3-(trifluoromethyl)phenoxy]pyridazine-4-carboxamide] | 4.51 |
| COC(=O)N(CC(F)(F)c1ccc(C)cc1C)C(=O)c1cc(Cl)nnc1Oc1cccc(C(F)(F)F)c1 [Compound I-335, methyl N-[6-chloro-3-[3-(trifluoromethyl)phenoxy]pyridazine-4-carbonyl]-N-[2-(2,4-dimethylphenyl)-2,2-difluoro-ethyl]carbamate] | 5.19 |
| Cc1ccc(C(F)(F)CNC(=O)c2c(Oc3cccc(C(F)(F)F)c3)nnc(Cl)c2NC2COC2)c(C)c1 [Compound I-408, 6-chloro-N-[2-(2,4-dimethylphenyl)-2,2-difluoro-ethyl]-5-(oxetan-3-ylamino)-3-[3-(trifluoromethyl)phenoxy]pyridazine-4-carboxamide] | 3.85 |

Same assay, conditions: reversed-phase HPLC column, HPLC method [b]

| SMILES | chromatographic logP |
| --- | --- |
| Cc1ccc(C(F)(F)CNC(=O)c2c(Oc3cccc(C(F)(F)F)c3)nnc(Cl)c2NC2COC2)c(C)c1 [Compound I-408, 6-chloro-N-[2-(2,4-dimethylphenyl)-2,2-difluoro-ethyl]-5-(oxetan-3-ylamino)-3-[3-(trifluoromethyl)phenoxy]pyridazine-4-carboxamide] | 3.94 |

Same assay, conditions: reversed-phase HPLC column, HPLC on reversed phase column, method [a]

| SMILES | chromatographic logP |
| --- | --- |
| Cc1ccc(C(F)(F)CNC(=O)c2cc(Cl)nnc2Oc2cccc(C(F)(F)F)c2)c(C)c1 [Compound I-014, 6-chloro-N-[2-(2,4-dimethylphenyl)-2,2-difluoro-ethyl]-3-[3-(trifluoromethyl)phenoxy]pyridazine-4-carboxamide] | 4.46 |
| Cc1ccc(C(F)(F)CNC(=O)c2c(Oc3cccc(C(F)(F)F)c3)nnc(Cl)c2I)c(C)c1 [Compound I-020, 6-chloro-N-[2-(2,4-dimethylphenyl)-2,2-difluoro-ethyl]-5-iodo-3-[3-(trifluoromethyl)phenoxy]pyridazine-4-carboxamide] | 4.61 |
| COCCc1c(Cl)nnc(Oc2cccc(C(F)(F)F)c2)c1C(=O)NCC(F)(F)c1ccc(Br)cc1Cl [Compound I-070, N-[2-(4-bromo-2-chloro-phenyl)-2,2-difluoro-ethyl]-6-chloro-5-(2-methoxyethyl)-3-[3-(trifluoromethyl)phenoxy]pyridazine-4-carboxamide] | 4.77 |
| Cc1ccc(CCNC(=S)c2cc(C)nnc2Oc2cccc(C(F)(F)F)c2)c(C)c1 [Compound I-094, N-[2-(2,4-dimethylphenyl)ethyl]-6-methyl-3-[3-(trifluoro-methyl)phenoxy]pyridazine-4-carbothioamide] | 4.69 |
| Cc1ccc(C(F)(F)CNC(=O)c2c(Oc3cccc(C4CC4)c3F)nnc(Cl)c2C)c(Br)c1 [Compound I-840, N-[2-(2-bromo-4-methylphenyl)-2,2-difluoroethyl]-6-chloro-3-(3-cyclopropyl-2-fluoro-phenoxy)-5-methylpyridazine-4-carboxamide] | 4.57 |

Same assay, conditions: reversed-phase HPLC column, method [a]

| SMILES | chromatographic logP |
| --- | --- |
| O=C(NCC(F)(F)c1ccc(Br)cc1Cl)c1cc(Cl)nnc1Cl [Compound 3-10, N-[2-(4-bromo-2-chloro-phenyl)-2,2-difluoro-ethyl]-3,6-dichloro-pyridazine-4-carboxamide] | 3.29 |
| Cc1ccc(C(F)(F)CNC(=O)c2cc(I)nnc2Oc2cccc(C(F)(F)F)c2)c(C)c1 [Compound I-461, N-[2-(2,4-dimethylphenyl)-2,2-difluoro-ethyl]-6-iodo-3-[3-(trifluoromethyl)phenoxy]pyridazine-4-carboxamide] | 4.67 |
| O=C(NCC(F)(F)c1ccc(Br)cc1Cl)c1cc(Cl)nnc1Oc1cccc(F)c1F [Compound I-530, N-[2-(4-bromo-2-chloro-phenyl)-2,2-difluoro-ethyl]-6-chloro-3-(2,3-difluorophenoxy)pyridazine-4-carboxamide] | 4.27 |
| Cc1ccc(C(F)(F)CNC(=O)c2c(Oc3cccc(C(F)(F)F)c3)nnc(Cl)c2-c2cccnc2)c(C)c1 [Compound I-550, 6-chloro-N-[2-(2,4-dimethylphenyl)-2,2-difluoro-ethyl]-5-(3-pyridyl)-3-[3-(trifluoromethyl)phenoxy]pyridazine-4-carboxamide] | 3.99 |
| Cc1ccc(C(F)(F)CNC(=O)c2cc(C)nnc2Oc2cccc(C3CCC3)c2)c(C)c1 [Compound I-564, 3-(3-cyclobutylphenoxy)-N-[2-(2,4-dimethylphenyl)-2,2-difluoro-ethyl]-6-methyl-pyridazine-4-carboxamide] | 3.85 |
| CSc1cc(C(=O)NCC(F)(F)c2ccc(C)cc2C)c(Oc2cccc(C(F)(F)F)c2)nn1 [Compound I-767, N-[2-(2,4-dimethylphenyl)-2,2-difluoro-ethyl]-6-methylsulfanyl-3-[3-(trifluoromethyl)phenoxy]pyridazine-4-carboxamide] | 4.72 |
| Cc1ccc(C(F)(F)CNC(=O)c2c(Oc3cccc(Cl)c3)nnc(Cl)c2C)c(C)c1 [Compound I-790, 6-chloro-3-(3-chlorophenoxy)-N-[2-(2,4-dimethylphenyl)-2,2-difluoro-ethyl]-5-methyl-pyridazine-4-carboxamide] | 4.27 |

Same assay, conditions: reversed-phase HPLC column, method [a]: LC-UV, acidic range, 0.1% formic acid in water and acetonitrile as eluent (10% to 95% acetonitrile); Table 3, compounds of formula (1)

| SMILES | chromatographic logP |
| --- | --- |
| CCOC(=O)c1cc(Cl)nnc1Oc1cccc(Cl)c1F [Compound 1-119] | 3.6 |
| CCOC(=O)c1c(Oc2cccc(Cl)c2F)nnc(Cl)c1C [Compound 1-121] | 3.88 |
| COC(=O)c1cc(Cl)nnc1Oc1cccc(C(F)F)c1 [Compound 1-124] | 2.76 |
| CCOC(=O)c1cc(Cl)nnc1Oc1cccc(Br)c1 [Compound 1-130] | 3.65 |

Same assay, conditions: reversed-phase HPLC column, method [b]

| SMILES | chromatographic logP |
| --- | --- |
| O=C(NCC(F)(F)c1ccc(Br)cc1Cl)c1cc(Cl)nnc1Cl [Compound 3-10, N-[2-(4-bromo-2-chloro-phenyl)-2,2-difluoro-ethyl]-3,6-dichloro-pyridazine-4-carboxamide] | 3.24 |
